Reference: article PMC5762315, “Inhibition of polo-like kinase 4 (PLK4): a new therapeutic option for rhabdoid tumors and pediatric medulloblastoma” (Oncotarget, 2017)
Where “and” joins values, the source holds several entries; their conditions need not be identical. Equal values may be shown once.

Assays:
Assay in all cases: LanthaScreen Eu Kinase Binding Assay, panel of 486 biochemical kinase assays
various kinases [1] = target: various kinases (Homo sapiens, UniProt O43353); details: kinase RIPK2; LanthaScreen Binding
various kinases (Homo sapiens, UniProt O43353), sequence (O43353 whole entry): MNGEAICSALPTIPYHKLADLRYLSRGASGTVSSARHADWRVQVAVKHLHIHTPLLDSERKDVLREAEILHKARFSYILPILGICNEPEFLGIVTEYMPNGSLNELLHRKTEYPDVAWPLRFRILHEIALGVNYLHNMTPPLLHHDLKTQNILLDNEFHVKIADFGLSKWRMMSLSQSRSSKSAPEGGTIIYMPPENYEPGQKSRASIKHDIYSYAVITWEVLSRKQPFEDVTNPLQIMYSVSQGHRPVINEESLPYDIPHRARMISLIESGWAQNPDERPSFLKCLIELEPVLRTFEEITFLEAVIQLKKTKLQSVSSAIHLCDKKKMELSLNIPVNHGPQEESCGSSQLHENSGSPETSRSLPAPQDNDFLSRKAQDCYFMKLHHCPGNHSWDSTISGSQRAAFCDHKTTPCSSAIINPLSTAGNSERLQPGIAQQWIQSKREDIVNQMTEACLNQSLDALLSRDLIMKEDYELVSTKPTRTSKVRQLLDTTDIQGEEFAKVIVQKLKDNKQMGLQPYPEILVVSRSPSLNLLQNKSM

various kinases [2] = target: various kinases (Homo sapiens, UniProt O75460); details: ERN1
various kinases [3] = target: various kinases (Homo sapiens, UniProt O94921); details: CDK14 (PFTK1)/cyclin Y
various kinases [4] = target: various kinases (Homo sapiens, UniProt P06241); details: FYN A
various kinases [5] = target: various kinases (Homo sapiens, UniProt P10721, N822K); details: KIT N822K
various kinases [6] = target: various kinases (Homo sapiens, UniProt P10721, Y823D); details: KIT Y823D
various kinases [7] = target: various kinases (Homo sapiens, UniProt P15056); details: BRAF
various kinases [8] = target: various kinases (Homo sapiens, UniProt P36507); details: MAP2K2 (MEK2)
various kinases [9] = target: various kinases (Homo sapiens, UniProt P37173); details: kinase TGFBR2; LanthaScreen Binding
various kinases (Homo sapiens, UniProt P37173), sequence (P37173 23-567): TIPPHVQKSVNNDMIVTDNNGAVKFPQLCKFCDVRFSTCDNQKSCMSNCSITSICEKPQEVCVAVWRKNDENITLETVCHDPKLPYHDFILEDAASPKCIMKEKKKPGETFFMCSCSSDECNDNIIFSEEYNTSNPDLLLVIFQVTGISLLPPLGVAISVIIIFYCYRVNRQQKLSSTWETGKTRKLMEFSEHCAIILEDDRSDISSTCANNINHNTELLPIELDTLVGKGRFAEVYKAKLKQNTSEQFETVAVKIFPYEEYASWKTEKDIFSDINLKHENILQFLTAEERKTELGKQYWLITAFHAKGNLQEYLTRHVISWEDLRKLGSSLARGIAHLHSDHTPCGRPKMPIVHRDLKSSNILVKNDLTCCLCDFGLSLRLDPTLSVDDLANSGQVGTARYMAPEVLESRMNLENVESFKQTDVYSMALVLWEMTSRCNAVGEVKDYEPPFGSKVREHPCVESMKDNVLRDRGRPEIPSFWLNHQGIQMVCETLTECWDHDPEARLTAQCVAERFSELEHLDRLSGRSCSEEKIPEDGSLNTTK

various kinases [10] = target: various kinases (Homo sapiens, UniProt P49336); details: CDK8/cyclin C
various kinases [11] = target: various kinases (Homo sapiens, UniProt P52564); details: MAP2K6 (MKK6)
various kinases [12] = target: various kinases (Homo sapiens, UniProt P52564, S207E/T211E); details: MAP2K6 (MKK6) S207E T211E
various kinases (Homo sapiens, UniProt P52564, S207E/T211E), sequence (P52564 whole entry S207E/T211E): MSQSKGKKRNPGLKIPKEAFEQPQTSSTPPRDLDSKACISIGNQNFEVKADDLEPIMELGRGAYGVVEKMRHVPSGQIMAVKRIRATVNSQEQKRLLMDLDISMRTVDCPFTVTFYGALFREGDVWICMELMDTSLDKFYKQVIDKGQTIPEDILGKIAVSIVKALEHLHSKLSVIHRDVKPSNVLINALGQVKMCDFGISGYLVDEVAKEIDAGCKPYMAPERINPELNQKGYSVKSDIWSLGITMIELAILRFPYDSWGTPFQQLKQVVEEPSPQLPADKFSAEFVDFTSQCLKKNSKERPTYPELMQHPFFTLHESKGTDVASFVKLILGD

various kinases [13] = target: various kinases (Homo sapiens, UniProt P53667); details: LIMK1
various kinases [14] = target: various kinases (Homo sapiens, UniProt Q00536); details: CDK16 (PCTK1)/cyclin Y
various kinases [15] = target: various kinases (Homo sapiens, UniProt Q08345); details: DDR1
various kinases [16] = target: various kinases (Homo sapiens, UniProt Q13873); details: BMPR2
various kinases [17] = target: various kinases (Homo sapiens, UniProt Q15375); details: EPHA7
various kinases (Homo sapiens, UniProt Q15375), sequence (Q15375 28-998): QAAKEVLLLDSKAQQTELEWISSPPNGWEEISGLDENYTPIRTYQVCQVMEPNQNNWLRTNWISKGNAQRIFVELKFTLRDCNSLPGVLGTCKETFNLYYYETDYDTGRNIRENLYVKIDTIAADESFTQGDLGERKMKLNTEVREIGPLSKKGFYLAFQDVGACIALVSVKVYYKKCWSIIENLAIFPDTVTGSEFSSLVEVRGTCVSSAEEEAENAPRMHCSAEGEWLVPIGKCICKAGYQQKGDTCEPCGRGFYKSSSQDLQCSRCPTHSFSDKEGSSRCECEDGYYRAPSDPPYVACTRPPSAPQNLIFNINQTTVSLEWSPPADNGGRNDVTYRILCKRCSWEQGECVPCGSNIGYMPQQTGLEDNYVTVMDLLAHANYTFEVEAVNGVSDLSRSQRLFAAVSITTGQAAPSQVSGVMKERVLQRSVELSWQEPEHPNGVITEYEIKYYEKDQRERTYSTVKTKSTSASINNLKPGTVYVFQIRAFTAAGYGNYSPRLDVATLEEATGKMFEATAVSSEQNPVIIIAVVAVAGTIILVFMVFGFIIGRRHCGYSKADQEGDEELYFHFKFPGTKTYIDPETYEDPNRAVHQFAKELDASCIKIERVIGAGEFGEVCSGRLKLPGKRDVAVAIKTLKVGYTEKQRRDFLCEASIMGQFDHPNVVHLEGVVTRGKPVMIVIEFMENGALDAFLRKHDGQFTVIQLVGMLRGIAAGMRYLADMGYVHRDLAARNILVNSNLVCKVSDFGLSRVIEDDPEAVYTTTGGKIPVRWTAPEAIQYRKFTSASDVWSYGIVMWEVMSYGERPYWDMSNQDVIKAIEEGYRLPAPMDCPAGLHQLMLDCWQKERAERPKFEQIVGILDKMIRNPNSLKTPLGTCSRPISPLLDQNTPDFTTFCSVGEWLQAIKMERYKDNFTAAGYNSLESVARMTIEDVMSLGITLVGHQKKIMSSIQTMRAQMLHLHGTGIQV

various kinases [18] = target: various kinases (Homo sapiens, UniProt Q15746); details: MYLK (MLCK)
various kinases [19] = target: various kinases (Homo sapiens, UniProt Q16584); details: MAP3K11 (MLK3)
various kinases [20] = target: various kinases (Homo sapiens, UniProt Q32MK0); details: MLCK (MLCK2)
various kinases [21] = target: various kinases (Homo sapiens, UniProt Q86UX6); details: kinase STK32C (YANK3); LanthaScreen Binding
various kinases (Homo sapiens, UniProt Q86UX6), sequence (Q86UX6 whole entry): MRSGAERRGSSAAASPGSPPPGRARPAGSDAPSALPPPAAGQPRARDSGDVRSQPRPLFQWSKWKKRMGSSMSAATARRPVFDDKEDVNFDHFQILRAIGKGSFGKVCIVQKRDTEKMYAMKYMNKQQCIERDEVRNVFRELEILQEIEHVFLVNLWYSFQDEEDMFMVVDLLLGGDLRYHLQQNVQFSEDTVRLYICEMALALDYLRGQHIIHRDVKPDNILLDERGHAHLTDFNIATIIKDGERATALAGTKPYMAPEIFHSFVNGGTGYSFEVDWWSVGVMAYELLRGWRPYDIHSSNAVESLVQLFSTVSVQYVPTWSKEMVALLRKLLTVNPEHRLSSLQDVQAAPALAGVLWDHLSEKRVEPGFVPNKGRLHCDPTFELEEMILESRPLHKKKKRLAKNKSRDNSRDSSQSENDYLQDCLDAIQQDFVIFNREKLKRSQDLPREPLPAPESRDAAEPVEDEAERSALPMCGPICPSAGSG

various kinases [22] = target: various kinases (Homo sapiens, UniProt Q8IVH8); details: MAP4K3 (GLK)
various kinases [23] = target: various kinases (Homo sapiens, UniProt Q8IWQ3); details: BRSK2
various kinases [24] = target: various kinases (Homo sapiens, UniProt Q96GX5); details: MASTL
various kinases [25] = target: various kinases (Homo sapiens, UniProt Q99558); details: MAP3K14 (NIK)
various kinases [26] = target: various kinases (Homo sapiens, UniProt Q99683); details: MAP3K5 (ASK1)
various kinases [27] = target: various kinases (Homo sapiens, UniProt Q9BWU1)
various kinases (Homo sapiens, UniProt Q9BWU1), sequence (Q9BWU1 whole entry): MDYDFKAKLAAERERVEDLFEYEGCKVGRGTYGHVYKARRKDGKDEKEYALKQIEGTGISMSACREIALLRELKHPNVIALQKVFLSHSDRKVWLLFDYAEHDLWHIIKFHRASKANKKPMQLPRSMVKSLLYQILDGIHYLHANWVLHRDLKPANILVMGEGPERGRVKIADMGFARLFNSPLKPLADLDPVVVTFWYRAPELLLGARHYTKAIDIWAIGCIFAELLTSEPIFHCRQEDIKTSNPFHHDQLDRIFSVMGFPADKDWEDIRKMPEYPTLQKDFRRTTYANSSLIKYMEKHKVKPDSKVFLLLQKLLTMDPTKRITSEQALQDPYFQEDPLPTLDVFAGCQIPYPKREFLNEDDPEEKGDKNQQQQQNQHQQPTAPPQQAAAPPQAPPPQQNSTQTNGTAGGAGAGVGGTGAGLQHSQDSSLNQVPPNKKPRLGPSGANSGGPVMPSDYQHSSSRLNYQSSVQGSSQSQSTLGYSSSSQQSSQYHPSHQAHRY

various kinases [28] = target: various kinases (Homo sapiens, UniProt Q9HBH9); details: MKNK2 (MNK2)
various kinases [29] = target: various kinases (Homo sapiens, UniProt Q9UEW8); details: kinase STK39 (STLK3); LanthaScreen Binding
various kinases [30] = target: various kinases (Homo sapiens, UniProt Q9UM73, C1156Y); details: ALK C1156Y
various kinases [31] = target: various kinases (Homo sapiens, UniProt Q9UM73, L1196M); details: ALK L1196M
various kinases (Homo sapiens, UniProt Q9UM73, L1196M), sequence (Q9UM73 19-1620 L1196M): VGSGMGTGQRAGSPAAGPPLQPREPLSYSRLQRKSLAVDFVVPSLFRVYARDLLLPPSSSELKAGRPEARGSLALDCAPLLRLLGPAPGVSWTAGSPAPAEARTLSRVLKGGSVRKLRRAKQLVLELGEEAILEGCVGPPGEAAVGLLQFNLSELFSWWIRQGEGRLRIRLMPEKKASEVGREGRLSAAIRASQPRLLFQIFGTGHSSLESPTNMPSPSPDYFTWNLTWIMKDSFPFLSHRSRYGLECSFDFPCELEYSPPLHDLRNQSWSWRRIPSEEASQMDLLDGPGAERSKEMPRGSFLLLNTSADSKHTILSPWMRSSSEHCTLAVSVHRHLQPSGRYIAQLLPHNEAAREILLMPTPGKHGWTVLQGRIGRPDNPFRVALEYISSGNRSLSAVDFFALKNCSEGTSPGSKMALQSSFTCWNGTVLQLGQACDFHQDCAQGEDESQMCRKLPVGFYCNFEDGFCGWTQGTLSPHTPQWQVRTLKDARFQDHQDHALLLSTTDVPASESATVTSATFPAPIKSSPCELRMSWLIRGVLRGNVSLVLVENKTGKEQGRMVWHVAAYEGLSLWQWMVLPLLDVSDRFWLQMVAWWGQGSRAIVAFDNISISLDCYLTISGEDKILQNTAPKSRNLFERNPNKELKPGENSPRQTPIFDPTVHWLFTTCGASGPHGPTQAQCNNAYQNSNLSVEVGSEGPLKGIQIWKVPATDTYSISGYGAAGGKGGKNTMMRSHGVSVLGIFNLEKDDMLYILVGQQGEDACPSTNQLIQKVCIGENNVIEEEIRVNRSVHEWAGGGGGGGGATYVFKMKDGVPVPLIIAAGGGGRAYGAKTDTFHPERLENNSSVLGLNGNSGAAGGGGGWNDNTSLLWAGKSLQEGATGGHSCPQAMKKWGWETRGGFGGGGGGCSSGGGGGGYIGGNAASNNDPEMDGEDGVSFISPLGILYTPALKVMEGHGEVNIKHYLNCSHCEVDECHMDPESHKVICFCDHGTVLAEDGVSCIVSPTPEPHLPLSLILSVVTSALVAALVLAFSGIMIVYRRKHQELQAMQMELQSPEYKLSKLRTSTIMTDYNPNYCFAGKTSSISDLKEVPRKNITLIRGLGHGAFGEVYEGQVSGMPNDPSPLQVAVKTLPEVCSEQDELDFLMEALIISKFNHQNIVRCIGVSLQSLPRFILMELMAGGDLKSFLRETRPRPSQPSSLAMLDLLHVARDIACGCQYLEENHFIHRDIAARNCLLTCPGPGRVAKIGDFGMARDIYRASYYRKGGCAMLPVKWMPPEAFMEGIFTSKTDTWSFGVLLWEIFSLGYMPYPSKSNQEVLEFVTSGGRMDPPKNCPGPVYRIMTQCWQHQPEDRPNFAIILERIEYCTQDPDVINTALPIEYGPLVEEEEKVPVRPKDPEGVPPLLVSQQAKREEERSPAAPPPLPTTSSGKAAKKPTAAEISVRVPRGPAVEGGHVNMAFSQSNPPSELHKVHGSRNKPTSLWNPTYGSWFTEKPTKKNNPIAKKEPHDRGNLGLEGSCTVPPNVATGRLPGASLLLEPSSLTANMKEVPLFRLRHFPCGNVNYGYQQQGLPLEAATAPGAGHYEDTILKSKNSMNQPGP

various kinases [32] = test system: various kinases

Structure (SMILES): COc1ccc2c(c1)[C@]1(C[C@H]1c1ccc3c(/C=C/c4ccc(CN5C[C@@H](C)O[C@@H](C)C5)cc4)n[nH]c3c1)C(=O)N2 [CFI-400945]
- % Inhibition Average (various kinases [1]): 3%
- % Inhibition Duplicate #1 (various kinases [1]): 3%
- % Inhibition Duplicate #2 (various kinases [1]): 3%
- % Inhibition (various kinases [2]): 3% and 7%
- % Inhibition (various kinases [3]): -4% and 2%
- % Inhibition (various kinases [4]): 8%
- % Inhibition (various kinases [5]): 6% and 3%
- % Inhibition (various kinases [6]): 4% and -6%
- % Inhibition (various kinases [7]): 0% and 6%
- % Inhibition (various kinases [8]): 1% and 2%
- % Inhibition Average (various kinases [9]): 1%
- % Inhibition Duplicate #1 (various kinases [9]): -2%
- % Inhibition Duplicate #2 (various kinases [9]): 5%
- % Inhibition (various kinases [10]): 17% and 9%
- % Inhibition (various kinases [11]): 14%
- % Inhibition (various kinases [12]): 9% and 8%
- % Inhibition (various kinases [13]): 11% and 15%
- % Inhibition (various kinases [14]): 10% and 9%
- % Inhibition (various kinases [15]): 46% and 45%
- % Inhibition (various kinases [16]): 0% and 2%
- % Inhibition (various kinases [17]): -4% and 5%
- % Inhibition (various kinases [18]): 0% and -2%
- % Inhibition (various kinases [19]): 7% and -2%
- % Inhibition (various kinases [20]): 1% and 6%
- % Inhibition Average (various kinases [21]): 15%
- % Inhibition Duplicate #1 (various kinases [21]): 14%
- % Inhibition Duplicate #2 (various kinases [21]): 17%
- % Inhibition (various kinases [22]): 23% and 19%
- % Inhibition (various kinases [23]): -4% and -7%
- % Inhibition (various kinases [24]): 16% and 15%
- % Inhibition (various kinases [25]): 0% and 1%
- % Inhibition (various kinases [26]): -6% and -3%
- % Inhibition (various kinases [27]; CDK11 (Inactive)): -3% and -1%
- % Inhibition (various kinases [27]; CDK11/cyclin C): 16% and 13%
- % Inhibition (various kinases [28]): 26% and 29%
- % Inhibition Average (various kinases [29]): 20%
- % Inhibition Duplicate #1 (various kinases [29]): 18%
- % Inhibition Duplicate #2 (various kinases [29]): 22%
- % Inhibition (various kinases [30]): 47% and 51%
- % Inhibition (various kinases [31]): 14% and 25%
- % Inhibition (various kinases [32]; ALK T1151_L1152insT): 31% and 35%
- % Inhibition (various kinases [32]; EGFR (ErbB1) d747-749 A750P): 12% and 23%
- % Inhibition (various kinases [32]; FLT3 ITD): 45% and 41%
- % Inhibition (various kinases [32]; MAP3K7/MAP3K7IP1 (TAK1-TAB1)): 8%
